Data taken from patent US8691761B2, “Somatostatin receptor 2 antagonists” (priority 2006, dated 2014).
Several values for one entry are separate records, joined by “and”; a condition that tells them apart may be missing. Equal values may be shown once. Read-outs that look alike come from different tables or passages of the source. Bridge positions count the residues as written; N and C are the ends. Square brackets hold non-standard residues; d marks the D form. Peptide text beside a SMILES is read from it. * marks the point of attachment. DOTA = O=C(O)CN1CCN(CC(=O)O)CCN(CC(=O)*)CCN(CC(=O)O)CC1; Phe(4-NO2) = N[C@@H](Cc1ccc([N+](=O)[O-])cc1)C(=O)O; dPhe(4-NHCONH2) = NC(=O)Nc1ccc(C[C@@H](N)C(=O)O)cc1; Phe(4-Cl) = N[C@@H](Cc1ccc(Cl)cc1)C(=O)O; 2Nal = N[C@@H](Cc1ccc2ccccc2c1)C(=O)O

What was measured:
human sst2A receptor = molecular target: T1, human sst2A receptor (Homo sapiens, UniProt P30874); assay: Immunofluorescence-based sst2 internalization assay in HEK-sst2 cells; assay type: cell-based; settings: n ≧ 2
T1 construct: expressed in transfected cells; host or cells: HEK293 (HEK-sst2)
Procedure: Immunofluorescence-based sst2 Internalization Assay. Immunofluorescence microscopy-based internalization assay for sst2 was performed with HEK-sst2 using the sst2-specific antibody R2-88 as described elsewhere herein. HEK-sst2 cells were treated either with vehicle alone, the sst2 agonist [Tyr^3]-octreotide at a concentration of 100 nM, [Tyr^3]-octreotide at a concentration of 100 nM in the presence of an excess of the SRIF analogues to be tested (100 times the concentration of [Tyr^3]-octreotide), or with the SRIF analogues to be tested alone at a concentration of 10 μM, and then processed for immunofluorescence microscopy as described previously.

sst2 = sst2 (Homo sapiens, UniProt P30874); assay: Calcium release assay in HEK-sst2 cells (Fluo-4NW); assay type: cell-based; design: expressed in transfected cells; host or cells: HEK293 (HEK-sst2); settings: n ≧ 2
Procedure: Calcium release assay. Intracellular calcium release was measured in HEK-sst2 using the Fluo-4NW Calcium Assay kit as described previously (Magrys, et al. “The role of anti-alpha-enolase autoantibodies in pathogenicity of autoimmune-mediated retinopathy.” J. Clin. Immunol. 2007, 27, 181-192; Michel et al. “The Nef protein of human immunodeficiency virus is a broad-spectrum modulator of chemokine receptor cell surface levels that acts independently of classical motifs for receptor endocytosis and Galphai signaling.” Mol. Biol. Cell. 2006, 17, 3578-3590). In brief, HEK-sst2 cells were seeded (25,000 cells per well) in poly-D-lysine (20 μg/mL) coated 96 well plates and cultured for 1 day at 37° C. and 5% CO2 in culture medium. At the day of the experiment, the cells were washed with assay buffer (1×HBSS, 20 mM HEPES) containing 2.5 mM probenecid, and then loaded with 100 μL/well Fluo-4NW dye in assay buffer containing 2.5 mM probenecid for 30 min at 37° C. and 5% CO2 and then for further 30 min at room temperature. To measure the intracellular calcium mobilization after stimulation with the SRIF analogues to be tested, the dye-loaded cells were transferred to a SpectraMax M2^e (Molecular Devices, Sunnyvale, Calif.). Intracellular calcium mobilization was recorded in a kinetic for 60 sec at room temperature monitoring fluorescence emission at 520 nm (with λex=485 nm) in the presence of the analogues at the concentrations indicated. Maximum fluorescence (Fmax) was measured after the addition of 25 μM ionomycin. Baseline (control) measurements were taken for dye-loaded, untreated cells. Data are shown as percentage of Fmax (% Fmax) as reported previously. (Magrys, et al. J. Clin. Immunol. 2007, 27, 181-192; Michel et al. Mol. Biol. Cell. 2006, 17, 3578-3590). All experiments were repeated at least three times in triplicate.

hSSTR2 = molecular target: T2, hSSTR2 (Homo sapiens, UniProt P30874); assay: Receptor autoradiography, displacement of 125I-[Leu8,D-Trp22,Tyr25]-SRIF-28 from membrane pellet sections; assay type: binding
T2 construct: expressed in transfected cells; host or cells: CHO-K1 or CCL39 cells
Procedure: (§1) Generally, recombinant cells expressing the receptor are washed and homogenized to prepare a crude protein homogenate in a suitable buffer. In a typical assay, an amount of protein from the cell homogenate is placed into a small volume of an appropriate assay buffer at an appropriate pH. Candidate substances, such as potential SRIF agonists and antagonists, are added to the admixture in convenient concentrations, and the interaction between the candidate substance and the receptor polypeptide is monitored.
(§2) In vitro Bioassay: The effects of the various somatostatin analogs were tested in vitro for their ability to bind to isolated cloned receptors expressed on CHO-K1 cells and CCL39 cells. The molecular cloning of the genes encoding multiple somatostatin receptor subtypes permitted the individual expression of these receptors in mammalian cells and the characterization of their respective pharmacological profiles.
(§3) CHO-K1 cells were grown in Ham's F-12 medium, and CCL39 cells were grown in Dulbecco's modified Eagle's medium/Ham's F-12(1:1) mix, supplemented with 10% fetal bovine serum, 100 U/ml penicillin and 100 μg/ml streptomycin, in humidified air containing 5% CO2 at 37° C. Cells were washed twice with and scraped into ice-cold 0.05 M Tris-HCl (pH 7.4), collected by centrifugation, and homogenized using a rotor/stator/system in the same buffer. After centrifugation at 120 g for 5 min at 4° C., the supernatant was collected and centrifuged again at 48,000 g for 30 min at 4° C. The resulting pellet was resuspended in ice-cold Tris buffer, transferred into a microfuge tube, and centrifuged at 20,000 g for 15 min at 4° C. After withdrawal of the supernatant, the membrane pellet was stored at −80° C.
(§4) Receptor autoradiography was performed on 20 μm thick cryostat sections of the membrane pellets, mounted on microscope slides, and then stored at −20° C. […] Increasing concentrations of the unlabeled peptide were used ranging from 0.1-1000 nM. […] IC50 values were calculated after quantification of the data using a computer-assisted image processing system as known in this art.
(§5) The numbers in parentheses indicate the number of times the particular binding test was carried out.
(§6) Receptor autoradiography. Cell membrane pellets were prepared as previously described, and stored at −80° C. Receptor autoradiography was performed on 20-μm thick cryostat (Microm HM 500, Walldorf, Germany) sections of the membrane pellets, mounted on microscope slides, and then stored at −20° C. […] After a brief dip in distilled water to remove excess salts, the sections were dried quickly and exposed for 1 week to Kodak BioMax MR film. IC50 values were calculated after quantification of the data using a computer-assisted image processing system as described previously. […] (Reubi, J. C. “In vitro identification of vasoactive intestinal peptide receptors in human tumors: Implications for tumor imaging.” J. Nucl. Med. 1995, 36, 1846-1853).
(§7) To investigate their ssts binding properties, the peptides were tested for their ability to bind to cryostat sections from membrane pellets of cells expressing the five human ssts (Table 3).

hSSTR5 = molecular target: T3, hSSTR5 (Homo sapiens, UniProt P35346); assay: as above; assay type: binding
T3 construct: expressed in transfected cells; host or cells: CHO-K1 or CCL39 cells
Procedure: as §1, §2, §3, §4, §5, §6, §7

hSSTR4 = molecular target: T4, hSSTR4 (Homo sapiens, UniProt P31391); assay: as above; assay type: binding
T4 construct: expressed in transfected cells; host or cells: CHO-K1 or CCL39 cells
Procedure: as §1, §2, §3, §4, §5, §6, §7

hSSTR1 = molecular target: T5, hSSTR1 (Homo sapiens, UniProt P30872); assay: as above; assay type: binding
T5 construct: expressed in transfected cells; host or cells: CHO-K1 or CCL39 cells
Procedure: as §1, §2, §3, §4, §5, §6, §7

hSSTR3 = molecular target: T6, hSSTR3 (Homo sapiens, UniProt P32745); assay: as above; assay type: binding
T6 construct: expressed in transfected cells; host or cells: CHO-K1 or CCL39 cells
Procedure: as §1, §2, §3, §4, §5, §6, §7

[1] = Table 1, inhibition of radioligand binding to cloned human receptor, read-out: IC50 hSSTR2
[2] = Table 3, mean ± SEM when N ≧ 3, read-out: sst2 binding affinity (IC50)
[3] = Table 3, mean ± SEM when N ≧ 3, read-out: sst5 binding affinity (IC50)
[4] = Table 3, mean ± SEM when N ≧ 3, read-out: sst4 binding affinity (IC50)
[5] = Table 3, mean ± SEM when N ≧ 3, read-out: sst1 binding affinity (IC50)
[6] = Table 3, mean ± SEM when N ≧ 3, read-out: sst3 binding affinity (IC50)

T6 sequence (P32745 whole entry): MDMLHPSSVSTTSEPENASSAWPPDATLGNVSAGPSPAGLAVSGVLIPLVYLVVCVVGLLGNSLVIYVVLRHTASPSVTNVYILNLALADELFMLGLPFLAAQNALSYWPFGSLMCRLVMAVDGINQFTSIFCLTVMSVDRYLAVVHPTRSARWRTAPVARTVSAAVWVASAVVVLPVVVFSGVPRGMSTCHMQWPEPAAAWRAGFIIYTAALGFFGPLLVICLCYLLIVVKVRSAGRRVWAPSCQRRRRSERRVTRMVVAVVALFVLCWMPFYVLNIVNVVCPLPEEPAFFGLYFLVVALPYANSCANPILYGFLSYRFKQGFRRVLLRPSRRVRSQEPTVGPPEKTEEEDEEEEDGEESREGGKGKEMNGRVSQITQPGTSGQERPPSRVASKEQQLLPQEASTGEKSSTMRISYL
T3 sequence (P35346 whole entry): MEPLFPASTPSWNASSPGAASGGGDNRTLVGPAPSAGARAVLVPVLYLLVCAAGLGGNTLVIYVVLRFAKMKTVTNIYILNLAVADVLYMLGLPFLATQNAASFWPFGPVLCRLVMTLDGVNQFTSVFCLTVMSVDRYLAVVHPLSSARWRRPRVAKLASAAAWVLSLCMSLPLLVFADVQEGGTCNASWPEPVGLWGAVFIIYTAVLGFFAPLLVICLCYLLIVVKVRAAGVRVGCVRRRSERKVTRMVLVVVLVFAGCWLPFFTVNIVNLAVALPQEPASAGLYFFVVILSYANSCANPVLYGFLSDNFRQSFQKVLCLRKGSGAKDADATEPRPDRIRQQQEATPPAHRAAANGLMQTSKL
T5 sequence (P30872 whole entry): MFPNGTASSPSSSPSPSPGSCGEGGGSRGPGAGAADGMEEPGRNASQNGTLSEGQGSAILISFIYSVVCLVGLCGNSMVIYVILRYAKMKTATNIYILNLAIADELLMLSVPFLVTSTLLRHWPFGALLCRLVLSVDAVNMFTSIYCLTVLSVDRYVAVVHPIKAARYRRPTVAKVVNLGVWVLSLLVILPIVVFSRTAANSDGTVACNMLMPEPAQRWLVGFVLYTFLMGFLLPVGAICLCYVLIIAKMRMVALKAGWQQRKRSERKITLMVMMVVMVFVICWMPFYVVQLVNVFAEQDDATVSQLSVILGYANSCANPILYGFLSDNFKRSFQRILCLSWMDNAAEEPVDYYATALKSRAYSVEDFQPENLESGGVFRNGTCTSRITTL
T1 sequence (P30874 whole entry): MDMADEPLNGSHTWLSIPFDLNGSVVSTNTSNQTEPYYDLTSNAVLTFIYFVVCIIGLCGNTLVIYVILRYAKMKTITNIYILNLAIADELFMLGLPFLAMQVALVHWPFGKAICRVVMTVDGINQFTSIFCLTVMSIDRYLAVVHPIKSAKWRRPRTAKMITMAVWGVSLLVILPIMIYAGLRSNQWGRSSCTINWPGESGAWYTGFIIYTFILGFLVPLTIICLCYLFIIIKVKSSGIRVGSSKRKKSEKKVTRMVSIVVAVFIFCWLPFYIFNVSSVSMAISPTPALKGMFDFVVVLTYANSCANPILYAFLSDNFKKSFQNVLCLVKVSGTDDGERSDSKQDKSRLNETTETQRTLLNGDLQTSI
T2 sequence (P30874 whole entry): as above
T4 sequence (P31391 whole entry): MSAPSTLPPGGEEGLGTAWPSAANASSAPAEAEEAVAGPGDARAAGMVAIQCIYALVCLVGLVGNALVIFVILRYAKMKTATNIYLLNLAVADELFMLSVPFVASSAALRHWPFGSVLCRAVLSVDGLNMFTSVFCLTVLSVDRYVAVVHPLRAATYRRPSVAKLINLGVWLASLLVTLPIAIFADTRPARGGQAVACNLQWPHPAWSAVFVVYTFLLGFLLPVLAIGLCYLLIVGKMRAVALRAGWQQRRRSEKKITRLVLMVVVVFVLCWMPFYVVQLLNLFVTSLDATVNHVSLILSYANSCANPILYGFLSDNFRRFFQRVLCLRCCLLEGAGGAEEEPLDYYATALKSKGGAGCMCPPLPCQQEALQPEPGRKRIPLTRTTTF
Sequence of sst2 (P30874 whole entry): as the sequence (P30874 whole entry) above

Row | sst2-internalization tested in vitro in HEK-sst2 cells (function) (human sst2A receptor) | Calcium release tested in vitro in HEK-sst2 cells (function) (sst2) | IC50 (hSSTR2; [1]) | IC50 (hSSTR2; [2]) [µM] | IC50 (hSSTR5; Table 1, inhibition of radioligand binding to cloned human receptor, read-out: IC50 hSSTR5) [µM] | IC50 (hSSTR5; [3]) [µM] | IC50 (hSSTR4; Table 1, inhibition of radioligand binding to cloned human receptor, read-out: IC50 hSSTR4) [µM] | IC50 (hSSTR4; [4]) [µM] | IC50 (hSSTR1; Table 1, inhibition of radioligand binding to cloned human receptor, read-out: IC50 hSSTR1) [µM] | IC50 (hSSTR1; [5]) [µM] | IC50 (hSSTR3; Table 1, inhibition of radioligand binding to cloned human receptor, read-out: IC50 hSSTR3) [µM] | IC50 (hSSTR3; [6]) [µM] | effect on binding of the SRIF-28 radioligand to SSTR5 (hSSTR5; 100 nM) | effect on binding of the SRIF-28 radioligand to SSTR4 (hSSTR4; 100 nM) | effect on binding of the SRIF-28 radioligand to SSTR1 (hSSTR1; 100 nM) | effect on binding of the SRIF-28 radioligand to SSTR3 (hSSTR3; 100 nM) | SMILES
1 | Antagonist | Antagonist | 0.0094 ± 0.0016 µM | 0.0098 ± 0.0012 | > 1 | > 1 | 0.816 ± 0.114 | 0.831 ± 0.082 | > 1 | > 1 | > 1 | 0.972 ± 0.212 |  |  |  |  | C[C@@H](O)[C@@H]1NC(=O)[C@H](CCCCN)NC(=O)[C@@H](Cc2c[nH]c3ccccc23)NC(=O)[C@H](Cc2ccc(NC(N)=O)cc2)NC(=O)[C@H](NC(=O)[C@H](Cc2ccc(Cl)cc2)NC(=O)CN2CCN(CC(=O)O)CCN(CC(=O)O)CCN(CC(=O)O)CC2)CSSC[C@@H](C(=O)N[C@@H](Cc2ccc3ccccc3c2)C(N)=O)NC1=O [Peptide No. 14, DOTA-Cpa-c[DCys-Aph(Cbm)-DTrp-Lys-Thr-Cys]-2Nal-NH2]
2 | Antagonist | Antagonist | ~0.0018 µM and 0.0018 µM |  |  |  |  |  |  |  |  |  | minimal effects | minimal effects | minimal effects | minimal effects | C[C@@H](O)[C@@H]1NC(=O)[C@H](CCCCN)NC(=O)[C@@H](Cc2ccc(NC(N)=O)cc2)NC(=O)[C@H](Cc2ccc(O)cc2)NC(=O)[C@H](NC(=O)[C@H](Cc2ccc(Cl)cc2)NC(=O)CN2CCN(CC(=O)O)CCN(CC(=O)O)CCN(CC(=O)O)CC2)CSSC[C@@H](C(=O)N[C@@H](Cc2ccc3ccccc3c2)C(N)=O)NC1=O [Peptide No. 28, DOTA-Cpa-c[DCys-Tyr-DAph(Cbm)-Lys-Thr-Cys]-2Nal-NH2] ({DOTA}-[Phe(4-Cl)][dC]Y[dPhe(4-NHCONH2)]KTC[2Nal]-NH2; disulfide 2-7)
3 | Antagonist |  |  |  |  |  |  |  |  |  |  | > 1 |  |  |  |  | CC(=O)N[C@@H](Cc1ccc([N+](=O)[O-])cc1)C(=O)N[C@@H]1CSSC[C@@H](C(=O)N[C@H](Cc2ccc(O)cc2)C(N)=O)NC(=O)[C@H]([C@@H](C)O)NC(=O)[C@H](CCCCN)NC(=O)[C@@H](Cc2c[nH]c3ccccc23)NC(=O)[C@H](Cc2ccc(O)cc2)NC1=O [compound 1, Ac-pNO2Phe-c[DCys-Tyr-DTrp-Lys-Thr-Cys]-DTyr-NH2, reference compound]
4 | Antagonist |  |  | 0.0026 |  | > 1 |  | > 1 |  | > 1 |  | 0.384 |  |  |  |  | C[C@@H](O)[C@@H]1NC(=O)[C@H](CCCCN)NC(=O)[C@@H](Cc2ccc(NC(N)=O)cc2)NC(=O)[C@H](Cc2ccc(O)cc2)NC(=O)[C@H](NC(=O)[C@@H](N)Cc2ccc([N+](=O)[O-])cc2)CSSC[C@@H](C(=O)N[C@@H](Cc2ccc3ccccc3c2)C(N)=O)NC1=O [compound 4, H2N-pNO2Phe-c[DCys-Tyr-DAph(Cbm)-Lys-Thr-Cys]-2Nal-NH2] (H-[Phe(4-NO2)][dC]Y[dPhe(4-NHCONH2)]KTC[2Nal]-NH2; disulfide 2-7)
